Assay [1] has as its target Serine/threonine-protein kinase RIO3 (Homo sapiens) (UniProt O14730). The experiment in a line: Selectivity interaction (KinomeScan (DiscoverX)) EUB0000698a RIOK3. Conditions: at 10 µM.
Assay [2] has as its target Mitogen-activated protein kinase kinase kinase 1 (Homo sapiens) (UniProt Q13233). The experiment in a line: Selectivity interaction (KinomeScan (DiscoverX)) EUB0000698a MAP3K1. Particulars: at 10 µM.
Assay [3] deals with Serine/threonine-protein kinase 10 (Homo sapiens) (UniProt O94804). Nature of the assay: Selectivity interaction (KinomeScan (DiscoverX)) EUB0000698a STK10. Conditions: at 10 µM.
The target in assay [4] is T1, Phosphatidylinositol 5-phosphate 4-kinase type-2 beta (Homo sapiens) (UniProt P78356).
T1 sequence (whole entry): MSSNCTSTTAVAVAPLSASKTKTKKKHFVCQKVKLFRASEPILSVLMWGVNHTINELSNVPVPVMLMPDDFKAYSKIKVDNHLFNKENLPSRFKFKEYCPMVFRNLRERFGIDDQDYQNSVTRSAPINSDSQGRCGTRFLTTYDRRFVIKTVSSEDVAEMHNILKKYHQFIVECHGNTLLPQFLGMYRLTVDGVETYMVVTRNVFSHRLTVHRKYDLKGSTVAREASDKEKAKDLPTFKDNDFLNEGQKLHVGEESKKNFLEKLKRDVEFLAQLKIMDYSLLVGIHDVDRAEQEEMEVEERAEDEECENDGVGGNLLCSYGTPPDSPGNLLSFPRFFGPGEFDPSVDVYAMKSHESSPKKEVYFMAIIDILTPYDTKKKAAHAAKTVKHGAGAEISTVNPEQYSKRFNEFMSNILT
Nature of the assay: (§1) Selectivity interaction (KinomeScan (DiscoverX)) EUB0000698a PIP4K2B. Particulars: at 10 µM.

Assay [5] addresses T1, Phosphatidylinositol 5-phosphate 4-kinase type-2 beta (Homo sapiens). The assay is described as §1. Particulars: at 10 µM. The source holds these as a separate data set.
Assay [6] concerns the target Serine/threonine-protein kinase RIO1 (Homo sapiens) (UniProt Q9BRS2). The experiment in a line: Selectivity interaction (KinomeScan (DiscoverX)) EUB0000702a RIOK1. Conditions: at 1 µM.
Assay [7] deals with Dual specificity protein kinase CLK4 (Homo sapiens) (UniProt Q9HAZ1). Nature of the assay: Selectivity interaction (KinomeScan (DiscoverX)) EUB0000702a CLK4. Particulars: at 1 µM.
Another assay addresses Focal adhesion kinase 1 (Homo sapiens, UniProt Q05397). The experiment in a line: Selectivity interaction (KinomeScan (DiscoverX)) EUB0000702a PTK2. Particulars: at 1 µM.
The test system of assay [8] is Receptor-type tyrosine-protein kinase FLT3 (Homo sapiens), P36888 [UNDEFINED MUTATION]. The experiment in a line: Selectivity interaction (KinomeScan (DiscoverX)) EUB0000702a FLT3. Particulars: at 1 µM.
Assay [9] concerns the target Hepatocyte growth factor receptor (Homo sapiens) (UniProt P08581). Conditions: at 1 µM.
In assay [10] the target is Macrophage colony-stimulating factor 1 receptor (Homo sapiens) (UniProt P07333). Particulars: at 1 µM.
Assay [11] deals with Tyrosine-protein kinase FRK (Homo sapiens, UniProt P42685). Conditions: at 1 µM.
The target of assay [12] is Tyrosine-protein kinase receptor Tie-1 (Homo sapiens) (UniProt P35590). Particulars: at 1 µM.
For assay [13], the target named is NT-3 growth factor receptor (Homo sapiens, UniProt Q16288). Conditions: at 1 µM.
Assay [14] concerns the target 5'-AMP-activated protein kinase catalytic subunit alpha-1 (Homo sapiens, UniProt Q13131). The experiment in a line: Selectivity interaction (Kinase panel (University of Dundee)) EUB0000169b PRKAA1. Conditions: at 10 µM.
The target in assay [15] is Serine/threonine-protein phosphatase 2A activator (Homo sapiens) (UniProt Q15257). Nature of the assay: Selectivity interaction (Kinase panel (University of Dundee)) EUB0000169b PTPA. Conditions: at 10 µM.
Assay [16] addresses Ribosomal protein S6 kinase alpha-5 (Homo sapiens) (UniProt O75582). Nature of the assay: Selectivity interaction (Kinase panel (University of Dundee)) EUB0000169b RPS6KA5. Particulars: at 10 µM.
The target in assay [17] is Ribosomal protein S6 kinase alpha-1 (Homo sapiens) (UniProt Q15418). Conditions: at 10 µM.
The target of assay [18] is Casein kinase I isoform alpha (Homo sapiens) (UniProt P48729). Particulars: at 10 µM.
Assay [19] addresses T2, Mitogen-activated protein kinase 12 (Homo sapiens) (UniProt P53778).
T2 sequence (whole entry): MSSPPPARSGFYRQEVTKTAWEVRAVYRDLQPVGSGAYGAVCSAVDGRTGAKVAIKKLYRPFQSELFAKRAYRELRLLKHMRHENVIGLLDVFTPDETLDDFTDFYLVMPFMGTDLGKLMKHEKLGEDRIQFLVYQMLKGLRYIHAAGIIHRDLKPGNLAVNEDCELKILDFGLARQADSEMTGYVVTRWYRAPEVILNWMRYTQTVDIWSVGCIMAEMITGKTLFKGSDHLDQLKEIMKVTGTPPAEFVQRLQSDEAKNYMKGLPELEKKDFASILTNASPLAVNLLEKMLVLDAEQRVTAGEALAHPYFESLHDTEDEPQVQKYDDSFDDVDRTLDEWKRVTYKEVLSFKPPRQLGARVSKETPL
Conditions: at 10 µM.

Assay [20] concerns the target Serine/threonine-protein kinase 17A (Homo sapiens) (UniProt Q9UEE5). Nature of the assay: Selectivity interaction (KinomeScan (DiscoverX)) EUB0000305b STK17A. Particulars: at 100 nM.
The target in assay [21] is T3, Dual specificity mitogen-activated protein kinase kinase 5 (Homo sapiens, UniProt Q13163).
T3 sequence (Q13163 whole entry): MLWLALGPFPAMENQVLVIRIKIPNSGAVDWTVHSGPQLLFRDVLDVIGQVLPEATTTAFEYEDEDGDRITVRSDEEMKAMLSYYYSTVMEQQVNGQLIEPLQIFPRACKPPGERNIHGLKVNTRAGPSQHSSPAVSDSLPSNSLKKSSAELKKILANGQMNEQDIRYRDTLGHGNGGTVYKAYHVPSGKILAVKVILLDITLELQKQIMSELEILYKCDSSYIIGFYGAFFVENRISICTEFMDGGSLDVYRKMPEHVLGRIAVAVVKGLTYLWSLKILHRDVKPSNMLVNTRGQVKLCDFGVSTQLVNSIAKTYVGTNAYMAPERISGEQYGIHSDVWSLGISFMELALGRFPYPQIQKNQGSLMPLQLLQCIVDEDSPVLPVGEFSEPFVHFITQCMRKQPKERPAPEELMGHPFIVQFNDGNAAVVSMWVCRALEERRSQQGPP
The experiment in a line: Selectivity interaction (NanoBRET assay (HEK293T cells)) EUB0000305b MAP2K5.

In assay [22] the test system is Phosphatidylinositol 4,5-bisphosphate 3-kinase catalytic subunit alpha isoform (Homo sapiens), P42336 [Q546K]. The experiment in a line: Selectivity interaction (KinomeScan (DiscoverX)) EUB0000305b PIK3CA. Conditions: CellTiter-Glo assay (Promega, proliferation in ACHN cells): IC50 = […] nM, https://www.sgc-ffm.uni-frankfurt.de/#!specificprobeove, at 100 nM.
For another assay, the target named is Aurora kinase B (Homo sapiens, UniProt Q96GD4). The experiment in a line: Selectivity interaction (KinomeScan (DiscoverX)) EUB0000178b AURKB. Conditions: at 1 µM.
In assay [23] the target is Serine/threonine-protein kinase 16 (Homo sapiens, UniProt O75716). The experiment in a line: Selectivity interaction (KinomeScan (DiscoverX)) EUB0000138c STK16. Conditions: at 100 nM.

Some results are limits rather than exact numbers.

Chain of Serine/threonine-protein kinase 16 (O75716 whole entry): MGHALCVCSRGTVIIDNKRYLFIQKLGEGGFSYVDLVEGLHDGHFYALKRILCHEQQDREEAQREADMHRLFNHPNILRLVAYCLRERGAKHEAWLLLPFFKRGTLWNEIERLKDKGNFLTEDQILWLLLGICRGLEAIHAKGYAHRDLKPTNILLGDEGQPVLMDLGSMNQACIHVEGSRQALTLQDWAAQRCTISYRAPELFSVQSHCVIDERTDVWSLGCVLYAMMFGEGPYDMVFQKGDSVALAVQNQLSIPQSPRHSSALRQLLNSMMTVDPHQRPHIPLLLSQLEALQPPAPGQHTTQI
Chain of Casein kinase I isoform alpha (Homo sapiens) (P48729 2-337 limits assumed): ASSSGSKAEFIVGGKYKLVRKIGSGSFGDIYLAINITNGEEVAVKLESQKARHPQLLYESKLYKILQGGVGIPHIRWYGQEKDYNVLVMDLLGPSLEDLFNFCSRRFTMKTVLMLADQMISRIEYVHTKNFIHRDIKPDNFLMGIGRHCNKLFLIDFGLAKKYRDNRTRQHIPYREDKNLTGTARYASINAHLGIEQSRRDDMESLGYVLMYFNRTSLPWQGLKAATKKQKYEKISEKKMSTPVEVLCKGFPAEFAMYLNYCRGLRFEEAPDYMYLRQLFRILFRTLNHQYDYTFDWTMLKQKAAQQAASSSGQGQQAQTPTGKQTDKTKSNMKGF
Chain of Tyrosine-protein kinase FRK (P42685 whole entry): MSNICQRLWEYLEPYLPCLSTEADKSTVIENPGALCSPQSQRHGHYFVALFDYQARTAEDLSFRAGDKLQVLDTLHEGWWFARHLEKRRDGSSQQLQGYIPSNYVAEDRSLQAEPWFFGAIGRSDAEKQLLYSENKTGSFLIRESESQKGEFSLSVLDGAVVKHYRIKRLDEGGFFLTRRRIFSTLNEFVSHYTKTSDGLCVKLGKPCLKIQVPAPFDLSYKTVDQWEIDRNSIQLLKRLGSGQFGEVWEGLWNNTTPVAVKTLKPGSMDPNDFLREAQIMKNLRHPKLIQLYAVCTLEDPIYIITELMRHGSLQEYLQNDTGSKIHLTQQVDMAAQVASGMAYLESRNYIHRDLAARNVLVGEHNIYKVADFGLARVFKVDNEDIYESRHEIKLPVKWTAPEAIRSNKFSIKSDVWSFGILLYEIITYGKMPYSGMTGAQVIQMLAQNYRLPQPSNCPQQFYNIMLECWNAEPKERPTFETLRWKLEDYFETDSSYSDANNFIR
Chain of Serine/threonine-protein kinase RIO3 (Homo sapiens) (O14730 whole entry): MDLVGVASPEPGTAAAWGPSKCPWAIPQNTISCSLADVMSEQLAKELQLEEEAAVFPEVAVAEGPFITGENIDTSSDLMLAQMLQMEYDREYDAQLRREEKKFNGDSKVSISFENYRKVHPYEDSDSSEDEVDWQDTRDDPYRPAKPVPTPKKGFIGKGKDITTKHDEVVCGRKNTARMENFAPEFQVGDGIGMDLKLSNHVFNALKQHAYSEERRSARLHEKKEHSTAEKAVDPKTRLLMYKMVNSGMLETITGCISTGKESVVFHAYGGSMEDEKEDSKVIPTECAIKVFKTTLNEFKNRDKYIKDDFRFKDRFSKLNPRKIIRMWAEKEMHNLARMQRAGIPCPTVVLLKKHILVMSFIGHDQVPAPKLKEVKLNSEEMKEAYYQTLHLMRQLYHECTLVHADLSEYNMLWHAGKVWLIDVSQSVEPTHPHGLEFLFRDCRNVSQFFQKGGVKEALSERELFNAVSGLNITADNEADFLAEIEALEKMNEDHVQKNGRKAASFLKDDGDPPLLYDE
Chain of Ribosomal protein S6 kinase alpha-1 (Homo sapiens) (Q15418 whole entry, looked up, canonical isoform): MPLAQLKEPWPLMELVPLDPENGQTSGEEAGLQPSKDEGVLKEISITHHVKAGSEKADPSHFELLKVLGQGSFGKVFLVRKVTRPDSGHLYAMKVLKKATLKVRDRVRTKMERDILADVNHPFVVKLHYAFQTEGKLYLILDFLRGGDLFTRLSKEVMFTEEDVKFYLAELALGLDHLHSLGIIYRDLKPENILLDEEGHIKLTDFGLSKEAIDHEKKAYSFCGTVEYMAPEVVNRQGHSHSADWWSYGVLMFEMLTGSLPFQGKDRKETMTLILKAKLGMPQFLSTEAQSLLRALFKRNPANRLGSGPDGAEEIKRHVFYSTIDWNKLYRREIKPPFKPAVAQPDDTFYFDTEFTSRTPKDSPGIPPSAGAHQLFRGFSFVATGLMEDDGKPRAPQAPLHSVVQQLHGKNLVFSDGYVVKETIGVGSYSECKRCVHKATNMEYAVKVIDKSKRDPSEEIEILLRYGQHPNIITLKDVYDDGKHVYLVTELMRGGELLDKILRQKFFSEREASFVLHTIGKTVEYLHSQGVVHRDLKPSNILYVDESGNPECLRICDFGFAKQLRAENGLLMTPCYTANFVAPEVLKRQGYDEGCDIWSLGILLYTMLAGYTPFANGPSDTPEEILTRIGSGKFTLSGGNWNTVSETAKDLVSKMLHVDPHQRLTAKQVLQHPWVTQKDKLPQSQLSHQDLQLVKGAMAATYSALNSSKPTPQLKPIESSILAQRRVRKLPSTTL
Chain of Mitogen-activated protein kinase kinase kinase 1 (Homo sapiens) (Q13233 whole entry): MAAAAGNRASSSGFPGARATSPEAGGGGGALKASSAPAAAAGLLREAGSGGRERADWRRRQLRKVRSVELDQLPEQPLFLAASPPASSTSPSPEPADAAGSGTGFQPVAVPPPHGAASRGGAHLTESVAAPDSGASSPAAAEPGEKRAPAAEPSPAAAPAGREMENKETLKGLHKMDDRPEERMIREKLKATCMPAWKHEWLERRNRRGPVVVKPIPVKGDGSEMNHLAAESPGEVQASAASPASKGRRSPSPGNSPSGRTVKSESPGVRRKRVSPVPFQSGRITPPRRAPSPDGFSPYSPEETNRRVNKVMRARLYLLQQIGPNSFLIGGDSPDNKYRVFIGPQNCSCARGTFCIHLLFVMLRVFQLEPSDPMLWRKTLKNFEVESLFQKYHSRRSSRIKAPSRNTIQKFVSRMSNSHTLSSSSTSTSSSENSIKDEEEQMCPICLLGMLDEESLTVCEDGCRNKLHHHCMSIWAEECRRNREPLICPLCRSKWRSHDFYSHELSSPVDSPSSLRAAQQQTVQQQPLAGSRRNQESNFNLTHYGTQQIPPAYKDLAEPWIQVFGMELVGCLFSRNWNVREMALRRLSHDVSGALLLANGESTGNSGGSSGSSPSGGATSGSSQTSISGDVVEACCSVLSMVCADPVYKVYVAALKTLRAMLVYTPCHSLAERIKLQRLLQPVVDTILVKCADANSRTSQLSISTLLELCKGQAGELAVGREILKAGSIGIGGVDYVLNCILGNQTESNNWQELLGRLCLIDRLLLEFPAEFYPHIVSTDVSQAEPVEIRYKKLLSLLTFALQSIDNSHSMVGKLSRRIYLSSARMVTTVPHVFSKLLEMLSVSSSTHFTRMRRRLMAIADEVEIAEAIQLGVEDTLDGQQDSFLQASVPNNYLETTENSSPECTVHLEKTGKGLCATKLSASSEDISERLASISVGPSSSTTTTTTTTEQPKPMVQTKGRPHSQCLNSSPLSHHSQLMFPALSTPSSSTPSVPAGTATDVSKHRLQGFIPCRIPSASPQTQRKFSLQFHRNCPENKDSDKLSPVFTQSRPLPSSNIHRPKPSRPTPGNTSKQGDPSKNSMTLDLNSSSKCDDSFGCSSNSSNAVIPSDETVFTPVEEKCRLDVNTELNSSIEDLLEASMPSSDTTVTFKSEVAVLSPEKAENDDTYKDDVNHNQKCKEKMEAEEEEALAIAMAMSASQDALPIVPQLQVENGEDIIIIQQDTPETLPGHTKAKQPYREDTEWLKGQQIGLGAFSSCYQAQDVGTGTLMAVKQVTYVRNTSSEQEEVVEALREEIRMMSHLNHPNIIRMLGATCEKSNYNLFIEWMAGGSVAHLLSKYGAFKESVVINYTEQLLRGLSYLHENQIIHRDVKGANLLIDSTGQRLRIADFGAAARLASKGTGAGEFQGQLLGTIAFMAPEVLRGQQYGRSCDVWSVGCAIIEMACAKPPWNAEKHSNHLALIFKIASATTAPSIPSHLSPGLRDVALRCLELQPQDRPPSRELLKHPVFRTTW
Chain of Serine/threonine-protein phosphatase 2A activator (Homo sapiens) (Q15257 whole entry): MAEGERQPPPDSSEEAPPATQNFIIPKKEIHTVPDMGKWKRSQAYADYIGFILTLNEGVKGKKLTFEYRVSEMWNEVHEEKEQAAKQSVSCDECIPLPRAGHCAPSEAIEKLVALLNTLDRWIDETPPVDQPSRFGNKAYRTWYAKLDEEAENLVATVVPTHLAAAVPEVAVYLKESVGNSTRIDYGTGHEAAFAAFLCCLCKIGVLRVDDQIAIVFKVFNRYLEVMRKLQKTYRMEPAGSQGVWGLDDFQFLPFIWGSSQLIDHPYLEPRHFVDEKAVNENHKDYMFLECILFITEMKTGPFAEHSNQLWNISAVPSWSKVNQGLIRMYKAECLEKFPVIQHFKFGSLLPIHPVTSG
Chain of Aurora kinase B (Q96GD4 whole entry): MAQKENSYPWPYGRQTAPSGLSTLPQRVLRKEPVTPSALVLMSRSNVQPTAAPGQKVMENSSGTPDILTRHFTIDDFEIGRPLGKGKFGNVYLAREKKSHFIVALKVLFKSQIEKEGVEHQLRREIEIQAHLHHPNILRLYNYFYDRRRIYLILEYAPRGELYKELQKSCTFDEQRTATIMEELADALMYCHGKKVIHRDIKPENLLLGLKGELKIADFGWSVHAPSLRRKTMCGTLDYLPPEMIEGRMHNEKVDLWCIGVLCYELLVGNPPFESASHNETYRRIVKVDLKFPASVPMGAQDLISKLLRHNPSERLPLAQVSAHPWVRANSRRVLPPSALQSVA

`COc1cc2ncn(-c3cc(OCc4ccccc4C(F)(F)F)c(C(N)=O)s3)c2cc1OC` [GW843682X]: the % of control in assay [1] is 4.2%; in assay [2] it was 1.6%; in [3], 0%; in assay [4], 6.6%; in assay [5] it was 6.6%.

On to `CN(c1ccnc(CNc2nc(Nc3ccc4c(c3)CC(=O)N4)ncc2C(F)(F)F)n1)S(C)(=O)=O` [PF-00911705], for which the % of control in [6] amounted to 9.7%; in [7] it was 1.4%; at Focal adhesion kinase 1, 4.9%; in [8], 0%.

Take `CCOc1cn(-c2ccc(F)cc2C)nc1C(=O)Nc1ccc(Oc2ccnc3cc(OC)c(OC)cc23)c(F)c1`: the % of control in assay [9], in [10], in assay [11], in assay [12] and in [13] was below 10% throughout.

As to `CC[C@@H]1C(=O)N(C)c2cnc(Nc3ccc(C(=O)NC4CCN(C)CC4)cc3OC)nc2N1C1CCCC1`, the % of control came out at 89% in [14]; 56% in [15]; 89% in [16]; 13.8% in assay [17]; 56% in assay [18]; 112% in assay [19].

On to `C[C@H](c1ccnc(Nc2nc3ccc(-c4cc(N(C)C)ncn4)cc3[nH]2)c1)N1CCN(C(=O)CC(F)(F)F)CC1` [BAY-985], for which the values for the % of control in assay [20] and in [22] were 40% and 45%, respectively. Further, the IC50 (in general, the concentration needed to halve the response being measured) in [21] was above 20 µM.

Compound `CN1C(=O)c2sccc2N(C)c2nc(Nc3ccc(S(N)(=O)=O)cc3)ncc21` showed a % of control at Aurora kinase B of 3.4%.

In turn, `CNC(=O)c1ccc(Nc2ncc(C(F)(F)F)c(NCc3nccnc3N(C)S(C)(=O)=O)n2)cc1` [DEFACTINIB] had a % of control in assay [23] of 7.7%.
